Measured values as given in ChEMBL document CHEMBL6103572, “Design, synthesis and structure-activity relationship of novel 1,2,4-triazolopyrimidin-5-one derivatives targeting GABAA1 and Nav1.2 with antiepileptic activity” (Eur J Med Chem, 2025).

Tests used:
Mus musculus [1] = test: Anticonvulsant activity in ip dosed sc-PTZ induced Kunming mouse model assessed as effective dose measured after 0.5 hrs […]; format: functional
Mus musculus [2] = test: Anticonvulsant activity in MES-induced seizure Kunming mouse model assessed as protection against tonic hind limb extension at 30 mg/kg, ip measured after 30 min; format: functional, organism-based
[3] = biological target: GABA-A receptor; alpha-1/beta-2/gamma-2 (Homo sapiens) (UniProt P14867+P47870+P18507); test: Potentiation of recombinant human alpha1/beta2/gamma2 GABA receptor expressed in T-REX-CHO cells assessed as fold increase in current amplitude by measuring maximum efficacy by whole-cell patch clamp assay; format: cell-based; conditions: filed as activator, time 24-48 hrs
[4] = Drug concentration in male Sprague-Dawley rat brain at 30 mg/kg, IG administered once measured after 0.25 to 8 hrs by HPLC analysis; format: ADME, organism-based; conditions: in vivo, po, time 0.25-8 hrs
[5] = biological target: Sodium channel protein type 2 subunit alpha (Homo sapiens, UniProt Q99250); test: Inhibition of Nav 1.2 (unknown origin) expressed in HEK293 cells at -20 mV to -120 mV holding potential under inactivation state by whole-cell patch clamp analysis; format: cell-based
Chain of Sodium channel protein type 2 subunit alpha (Q99250 whole entry): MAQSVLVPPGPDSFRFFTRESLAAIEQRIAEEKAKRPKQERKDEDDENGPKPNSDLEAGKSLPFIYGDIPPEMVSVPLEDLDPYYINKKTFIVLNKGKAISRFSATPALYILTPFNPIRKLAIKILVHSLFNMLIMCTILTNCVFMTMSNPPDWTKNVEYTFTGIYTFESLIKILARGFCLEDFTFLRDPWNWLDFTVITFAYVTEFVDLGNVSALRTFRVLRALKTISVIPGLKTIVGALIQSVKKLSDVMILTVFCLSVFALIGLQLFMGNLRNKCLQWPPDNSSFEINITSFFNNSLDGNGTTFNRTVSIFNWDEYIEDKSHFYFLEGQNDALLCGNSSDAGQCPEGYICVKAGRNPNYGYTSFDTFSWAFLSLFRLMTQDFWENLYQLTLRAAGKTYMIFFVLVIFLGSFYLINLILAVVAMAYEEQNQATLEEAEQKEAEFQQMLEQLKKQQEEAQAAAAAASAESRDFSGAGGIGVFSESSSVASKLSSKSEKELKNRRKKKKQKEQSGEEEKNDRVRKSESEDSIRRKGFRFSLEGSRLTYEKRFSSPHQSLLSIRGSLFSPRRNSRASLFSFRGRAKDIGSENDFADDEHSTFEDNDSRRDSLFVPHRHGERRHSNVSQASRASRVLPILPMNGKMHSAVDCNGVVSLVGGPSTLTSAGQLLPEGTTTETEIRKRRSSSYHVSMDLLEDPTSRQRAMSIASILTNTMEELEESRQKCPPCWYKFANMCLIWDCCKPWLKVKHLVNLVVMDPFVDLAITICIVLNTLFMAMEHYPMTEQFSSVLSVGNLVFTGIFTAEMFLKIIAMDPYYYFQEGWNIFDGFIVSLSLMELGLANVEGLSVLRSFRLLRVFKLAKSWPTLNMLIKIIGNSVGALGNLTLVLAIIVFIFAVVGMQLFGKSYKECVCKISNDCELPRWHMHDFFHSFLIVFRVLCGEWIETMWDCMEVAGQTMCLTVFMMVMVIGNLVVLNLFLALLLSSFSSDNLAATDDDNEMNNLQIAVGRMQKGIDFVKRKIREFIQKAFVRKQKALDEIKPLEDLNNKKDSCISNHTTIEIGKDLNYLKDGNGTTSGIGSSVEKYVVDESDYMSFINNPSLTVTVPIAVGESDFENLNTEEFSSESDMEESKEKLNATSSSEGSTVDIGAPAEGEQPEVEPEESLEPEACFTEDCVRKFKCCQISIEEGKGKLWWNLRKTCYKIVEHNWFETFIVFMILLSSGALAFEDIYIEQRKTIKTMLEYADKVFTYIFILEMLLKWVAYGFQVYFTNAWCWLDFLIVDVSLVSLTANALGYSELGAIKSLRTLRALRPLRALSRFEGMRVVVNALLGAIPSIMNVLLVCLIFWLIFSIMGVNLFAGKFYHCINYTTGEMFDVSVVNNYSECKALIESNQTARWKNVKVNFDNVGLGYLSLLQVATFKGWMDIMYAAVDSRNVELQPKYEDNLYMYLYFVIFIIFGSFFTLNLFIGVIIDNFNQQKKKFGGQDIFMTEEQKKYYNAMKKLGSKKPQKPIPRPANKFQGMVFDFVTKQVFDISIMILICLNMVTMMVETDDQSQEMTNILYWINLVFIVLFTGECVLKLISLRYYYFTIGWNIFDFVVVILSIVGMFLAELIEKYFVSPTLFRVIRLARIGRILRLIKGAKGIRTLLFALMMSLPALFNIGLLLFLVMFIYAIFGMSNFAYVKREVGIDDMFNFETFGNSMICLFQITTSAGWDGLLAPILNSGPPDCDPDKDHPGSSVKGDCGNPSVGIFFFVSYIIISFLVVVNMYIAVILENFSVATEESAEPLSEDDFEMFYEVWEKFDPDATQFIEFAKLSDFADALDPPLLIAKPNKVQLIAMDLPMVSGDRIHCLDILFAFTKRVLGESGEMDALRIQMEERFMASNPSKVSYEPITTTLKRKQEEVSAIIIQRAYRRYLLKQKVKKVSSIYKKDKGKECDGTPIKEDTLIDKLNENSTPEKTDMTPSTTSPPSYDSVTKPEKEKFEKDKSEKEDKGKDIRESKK

Mus musculus [6] = test: Antiepileptic activity in PTZ induced Kunming mouse model assessed as protection of seizure at 30 mg/kg, ip incubated for 30 min prior to PTZ stimulation relative to control; format: functional; conditions: 0.5 h
[7] = Neurotoxicity in ip dosed sc-PTZ induced Kunming mouse measured after 0.5 hrs by rotarod test; format: toxicity, organism-based; conditions: in vivo
[8] = Drug concentration in male Sprague-Dawley rat plasma at 30 mg/kg, IG administered once measured after 0.25 to 8 hrs by HPLC analysis; format: ADME, organism-based; conditions: in vivo, po, time 0.25-8 hrs
[9] = Protection index, ratio of TD50 for neurotoxicity in ip dosed scPTZ induced Kunming mouse to ED50 for anticonvulsant activity in ip dosed scPTZ induced Kunming mouse; format: toxicity, organism-based; conditions: in vivo, read-out: Ratio TD50/ED50
[10] = biological target: GABA-A receptor; anion channel (Rattus norvegicus) (UniProt O09028+P15431+P18506+P18508+P19969+P20236+P23574+P23576+P28471+P28473+P30191+P62813+P63079+P63138+Q91ZM7+Q9ES14); test: Potentiation of GABAA receptor in Sprague-Dawley rat hippocampal neurons assessed as increase in current amplitude by whole-cell voltage-clamp assay; format: cell-based; conditions: Hippocampal neuron, filed as activator, dose 0.1-10 µM
[11] = biological target: T1, GABA-A receptor; alpha-1/beta-2/gamma-2 (Homo sapiens, UniProt P14867+P18507+P47870); test: Potentiation of recombinant human alpha1/beta2/gamma2 GABA receptor expressed in T-REX-CHO cells assessed as increase in current amplitude by whole-cell patch clamp assay; format: cell-based
T1 sequence (P14867 whole entry): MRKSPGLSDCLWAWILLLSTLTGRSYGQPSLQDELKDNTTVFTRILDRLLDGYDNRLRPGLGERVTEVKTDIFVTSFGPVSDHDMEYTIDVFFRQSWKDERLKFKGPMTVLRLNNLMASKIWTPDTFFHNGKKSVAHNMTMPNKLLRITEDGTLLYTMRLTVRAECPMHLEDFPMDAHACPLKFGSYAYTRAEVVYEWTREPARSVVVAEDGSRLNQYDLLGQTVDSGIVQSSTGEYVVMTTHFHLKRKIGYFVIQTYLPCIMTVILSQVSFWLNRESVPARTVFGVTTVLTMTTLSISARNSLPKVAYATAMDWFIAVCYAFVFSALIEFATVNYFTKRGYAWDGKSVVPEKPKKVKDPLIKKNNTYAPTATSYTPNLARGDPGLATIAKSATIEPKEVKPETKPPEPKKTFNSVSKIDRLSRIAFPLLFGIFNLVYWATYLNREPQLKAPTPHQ
T1 sequence (P47870 whole entry): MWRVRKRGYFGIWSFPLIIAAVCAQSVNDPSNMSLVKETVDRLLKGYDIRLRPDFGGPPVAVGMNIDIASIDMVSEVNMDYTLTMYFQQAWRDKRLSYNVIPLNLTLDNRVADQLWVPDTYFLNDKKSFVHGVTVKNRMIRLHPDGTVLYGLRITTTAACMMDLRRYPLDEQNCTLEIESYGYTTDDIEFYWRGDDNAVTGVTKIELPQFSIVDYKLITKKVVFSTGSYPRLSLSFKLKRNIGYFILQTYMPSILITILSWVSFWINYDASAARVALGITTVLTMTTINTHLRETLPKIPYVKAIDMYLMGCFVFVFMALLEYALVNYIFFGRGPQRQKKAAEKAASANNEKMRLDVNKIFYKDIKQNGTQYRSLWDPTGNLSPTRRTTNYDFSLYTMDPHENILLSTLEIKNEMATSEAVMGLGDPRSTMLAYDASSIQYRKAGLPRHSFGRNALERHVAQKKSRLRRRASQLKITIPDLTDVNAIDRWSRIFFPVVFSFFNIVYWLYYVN
T1 sequence (P18507 whole entry): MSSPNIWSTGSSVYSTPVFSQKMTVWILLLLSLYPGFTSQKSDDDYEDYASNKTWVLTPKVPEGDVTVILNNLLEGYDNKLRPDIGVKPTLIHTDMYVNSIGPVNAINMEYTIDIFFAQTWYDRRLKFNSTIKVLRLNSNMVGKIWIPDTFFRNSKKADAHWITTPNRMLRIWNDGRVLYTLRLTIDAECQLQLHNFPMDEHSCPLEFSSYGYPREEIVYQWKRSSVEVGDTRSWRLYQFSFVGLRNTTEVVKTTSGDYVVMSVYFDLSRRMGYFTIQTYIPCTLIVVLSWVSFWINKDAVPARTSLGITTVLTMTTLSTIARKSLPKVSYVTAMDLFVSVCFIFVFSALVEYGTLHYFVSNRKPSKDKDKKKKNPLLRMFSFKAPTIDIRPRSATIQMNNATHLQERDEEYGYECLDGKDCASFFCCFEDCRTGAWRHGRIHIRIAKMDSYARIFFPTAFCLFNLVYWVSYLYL

| Compound | ED50 (Mus musculus [1]) | Activity (Mus musculus [2]) | fold change (FC) [3] | Ct [4] | IC50 [5] | Activity (Mus musculus [6]) | TD50 at 0.5 h [7] | Cp [8] | selectivity ratio [9] | Activity [10] | EC50 [11] |
| --- | --- | --- | --- | --- | --- | --- | --- | --- | --- | --- | --- |
| O=C1NC(=O)C(c2ccccc2)(c2ccccc2)N1 [PHENYTOIN] | > 300 mg/kg |  |  |  |  |  |  |  |  |  |  |
| O=C1CC(c2ccccc2Cl)n2nc(-c3ccccc3F)nc2N1 (configuration not stated) |  | Active; Moderate Protection |  |  |  |  |  |  |  |  |  |
| NC(=O)N1c2ccccc2C=Cc2ccccc21 [CARBAMAZEPINE] | > 100 mg/kg |  |  |  |  |  |  |  |  |  |  |
| O=C1CC(c2ccccc2F)n2nc(-c3ccccc3F)nc2N1 (configuration not stated) | 23.7 mg/kg | Active; Moderate Protection | 1.14 | 458.72 ng/mL | 19.9 µM | 100% | > 267 mg/kg | 866.91 ng/mL | > 11.3 |  |  |
| CCCC(CCC)C(=O)O [VALPROIC ACID] | 149 mg/kg |  |  |  |  |  |  |  |  |  |  |
| CCCCN1C(=O)CC(c2ccccc2)n2nc(-c3ccc(OC)cc3)nc21 (configuration not stated) | 17.1 mg/kg |  | 2.41 | 696.98 ng/mL | 35 µM | 100% | > 267 mg/kg | 1202.06 ng/mL | > 15.6 | Dose-dependent-effect | 1.24 µM |
| CCCCN1C(=O)CC(c2ccccc2)n2nc(-c3ccc(C)cc3)nc21 (configuration not stated) | 18.3 mg/kg |  | 2.21 | 661.3 ng/mL |  | 100% | > 267 mg/kg | 1186.41 ng/mL | > 14.6 | Dose-dependent-effect | 0.82 µM |
